Where a SMILES comes first, the peptide text is derived from it. Bridges are numbered along the chain shown (N, C = ends).
Experiments:
healthy men [1] = experiment: Plasma insulin, C-peptide and C-peptide/glucose ratio during LEAP2 infusion, crossover study; format: in vivo, human; conditions: mean ± SEM
Text: (§1) The infusion was terminated when participants had finished eating.
For analysis of plasma glucose, blood was distributed in fluoride heparin-coated tubes, centrifuged immediately for 30 s (12,100 g, room temperature) and measured bedside by the glucose oxidase method (YSI 2900 Biochemistry Analyzer; YSI Incorporated, Yellow Springs, Ohio, USA). For analysis of LEAP2, blood was collected in chilled K3EDTA tubes each containing 250 KIU of aprotinin. For analysis of acyl ghrelin, blood was collected in chilled K2EDTA tubes added 20 μL pefabloc (100 mg/mL; Merck Millipore, Burlington, Massachusetts, USA). Subsequently, pefabloc-treated plasma was acidified with HCl (12.5 μL 2M HCl per 500 μL plasma; Merck Millipore, Burlington, Massachusetts, USA). For analysis of glucagon, blood was collected in K2EDTA tubes. For analysis of GH, insulin, C-peptide, free fatty acids, glycerol, triglycerides and acetaminophen (paracetamol), blood was collected in tubes with lithium and heparin. All tubes were immediately cooled on ice, centrifuged for 15 min (2,000 g, 4°C) and stored at −80°C until analysis. LEAP2 concentrations were determined by an in-house radioimmunoassay directed against the N-terminal part of LEAP2. LEAP-2 was used for standards, and the tracer was a peptide composed of the 12 N-terminal amino acids of LEAP2, with a ^125I-labelled tyrosine added to the C-terminal end. The precision and accuracy of the assay were evaluated based on European Medicines Agency's guidelines for bioanalytical assay validation. […] Due to supply chain disruptions from the COVID-19 pandemic, acyl ghrelin was only measured in plasma samples at timepoints 0, 60, 105, 165 and 255 min. […] Plasma GH was measured by Immunodiagnostic system-iSYS assay (IS-3700; IDS Limited, Boldon, UK). The assay is based on chemiluminesence technology and was performed according to the manufacturer’|'s instructions. […] For analysis of glucagon, plasma was extracted in a final concentration of 70% ethanol. Glucagon was measured using a C-terminal directed antiserum (code number 4305) measuring glucagon of pancreatic origin as previously described.[40] […] Plasma insulin and C-peptide were measured using a two-sided electrochemiluminescence immunoassay (Atellica IM Analyzer; Siemens Healthcare, Ballerup, Denmark). Plasma triglycerides and acetaminophen were analyzed by spectrophotometric methods following enzymatic hydrolysis and oxidation (Siemens Atellica CH 930; Siemens Healthcare, Ballerup, Denmark). Plasma concentrations of free fatty acids and glycerol were determined by enzymatic methods modified to run on a COBAS 6000 automatic analyzer (Roche, Rødovre, Denmark) using a NEFA-HR assay (Wako Chemicals, Neuss, Germany) and glycerol assay (Randox Laboratories, Crumlin, UK), respectively.
Unless otherwise stated, results are presented as mean ± SEM. Baseline values were calculated as a mean of timepoints −35, −10 and 0 min or, when only available −10 and 0 min. Baseline values for the postprandial period were calculated as a mean of timepoint 60 min. Calculations of AUC were based on the trapezoidal rule. AUC values are reported for the period 0 to 255 min. To assess the fasting and postprandial periods separately, AUC values are reported for the periods 0 to 60 min and 60 to 255 min, respectively. Student’s paired t test was used to test for differences in baseline, peak, time to peak, AUC and mean values and ad libitum food intake in men.

healthy men [2] = experiment: Ad libitum meal test at the end of the infusion period; format: in vivo, human; conditions: healthy men n = 20, iv LEAP2 ~25 pmol/kg/min
Experimental: as §1
Unless otherwise stated, results are presented as mean ± SEM. Baseline values were calculated as a mean of timepoints −35, −10 and 0 min or, when only available −10 and 0 min. Baseline values for the postprandial period were calculated as a mean of timepoint 60 min. Calculations of AUC were based on the trapezoidal rule. AUC values are reported for the period 0 to 255 min. To assess the fasting and postprandial periods separately, AUC values are reported for the periods 0 to 60 min and 60 to 255 min, respectively. Student’s paired t test was used to test for differences in baseline, peak, time to peak, AUC and mean values and ad libitum food intake in men. Indirect calorimetry and thermal imaging data were fitted to a repeated-measures mixed effects model with the intervention and timepoints as independent variables with interaction and Geisser-Greenhouse correction. Šidák’s post hoc test was used to compare LEAP2 to placebo for each timepoint. For analysis of endogenous LEAP2 concentrations in response to a liquid mixed meal test, postprandial data during placebo infusion were fitted to a repeated-measures mixed effects model with time as a fixed effect and the individual participant as a random effect with Geisser-Greenhouse correction. Dunnett’s post hoc test was used to compare endogenous LEAP2 concentrations at each timepoint (75 to 255 min) to the postprandial baseline. Mouse plasma glucose, food intake and insulin data were analyzed by a repeated-measures two-way ANOVA with Šidák’s post hoc test. Statistical analyses were carried out using GraphPad Prism v9.0.0 and v9.1.1 (GraphPad Software, San Diego, California). A two-sided p value < 0.05 was considered statistically significant. The population size calculation was based on data from a previous study investigating the reproducibility of an ad libitum meal in healthy men.[41] Eighteen participants were needed to detect a difference of minimum 500 kJ in ad libitum food intake with a with-in subject difference of 739 kJ, a power of 80% and the above-mentioned significance level. To ensure sufficient power, 20 participants were included.

GHSR-null mice = experiment: Plasma glucose and food intake after subcutaneous LEAP2 in GHSR-null mice; format: in vivo, mouse; conditions: female GHSR-null mice n = 8, LEAP2 3 μmol/kg subcutaneous
Experimental: Food intake and blood glucose measurements were measured in female GHSR-null mice (n = 8) and wild-type littermates (n = 10) (14–24 weeks of age). Mice were double-housed with matching genotype and age. All mice were fasted for four hours and randomized by mean body weight per cage and allocated into either vehicle (saline) or LEAP2 administration on the first day of the study. LEAP2 or vehicle was administered subcutaneously just before start of dark phase (6 PM). By start of dark phase, mice had ad libitum access to water and a normal chow diet. Cumulative food intake was measured one, two and four hours after administration and calculated as the average food intake per cage per g body weight of each mouse, respectively. Blood glucose was measured in blood from a tail puncture at baseline and one, two and four hours after administration by use of a glucometer (Contour ™xt meter; Ascensia Diabetes Care, Basel, Switzerland). One week later, mice underwent the same procedure, but with the opposite treatment. The concentration of the LEAP2 dose was 3 μmol/kg.

[3] = healthy men n = 20, LEAP2 day, before infusion
[4] = healthy men n = 20, iv LEAP2 ~25 pmol/kg/min, 0 to 255 min
[5] = healthy men n = 20, iv LEAP2 ~25 pmol/kg/min, fasting period
[6] = healthy men n = 20, iv LEAP2 ~25 pmol/kg/min, liquid mixed meal at 65 min
[7] = healthy men n = 20, iv LEAP2 ~25 pmol/kg/min, postprandial period
[8] = healthy men n = 20, iv LEAP2 ~25 pmol/kg/min, time = 60 min

Q: What does the source list for `CC[C@H](C)[C@@H]1NC(=O)[C@@H]2CSSC[C@@H](C(=O)N[C@@H](CO)C(=O)N[C@@H](CC(C)C)C(=O)N[C@@H](CO)C(=O)N[C@H](C(=O)N[C@@H](C)C(=O)N[C@@H](CCC(N)=O)C(=O)N[C@@H](CCC(=O)O)C(=O)O)C(C)C)NC(=O)[C@H](CCCNC(=N)N)NC(=O)[C@H](CCCNC(=N)N)NC(=O)[C@H](CCCCN)NC(=O)[C@H](CCCNC(=N)N)NC(=O)[C@H](CSSC[C@H](NC(=O)[C@H](CO)NC(=O)[C@H](C)NC(=O)CNC(=O)[C@@H](NC(=O)[C@@H]3CCCN3C(=O)[C@H](CCCNC(=N)N)NC(=O)[C@H](CC(C)C)NC(=O)[C@H](CO)NC(=O)[C@@H](NC(=O)CNC(=O)[C@H](CCCNC(=N)N)NC(=O)[C@H](Cc3c[nH]c4ccccc34)NC(=O)[C@H](Cc3ccccc3)NC(=O)[C@@H]3CCCN3C(=O)[C@@H](NC(=O)[C@@H](N)CCSC)[C@@H](C)O)C(C)C)[C@@H](C)CC)C(=O)N[C@@H](CCCNC(=N)N)C(=O)N[C@@H](CC(=O)O)C(=O)N[C@@H](CC(=O)O)C(=O)N[C@@H](CO)C(=O)N[C@@H](CCC(=O)O)C(=O)N2)NC(=O)[C@H](CC(C)C)NC(=O)[C@H](CCCNC(=N)N)NC(=O)[C@H]([C@@H](C)O)NC1=O` [LEAP2, liver-expressed antimicrobial peptide 2] (H-MTPFWRGVSLRPIGASCRDDSECITRLCRKRRCSLSVAQE-OH; disulfide 17-28, 23-33 (inferred); N-terminus and C-terminus assumed)?
A: C-peptide Baseline (healthy men [1]; [3]): 360 ± 21.4 pmol/L; Insulin Baseline (healthy men [1]; [3]): 36.4 ± 1.70 pmol/L; C-peptide AUC (healthy men [1]; [4]): 218 ± 11.7 nmol·min/L; Insulin AUC (healthy men [1]; [4]): 33.8 ± 2.63 nmol·min/L; C-peptide AUC0–60 min (healthy men [1]; [5]): 22.5 ± 1.18 nmol·min/L; Insulin AUC0–60 min (healthy men [1]; [5]): 2.39 ± 0.09 nmol·min/L; C-peptide Peak (healthy men [1]; [6]): 1,524 ± 106 pmol/L; C-peptide Time to peak (healthy men [1]; [6]): 136 ± 9.01 min; Insulin Peak (healthy men [1]; [6]): 347 ± 38.6 pmol/L; Insulin Time to peak (healthy men [1]; [6]): 110 ± 6.28 min; C-peptide AUC60–255 min (healthy men [1]; [7]): 196 ± 11.2 nmol·min/L; Insulin AUC60–255 min (healthy men [1]; [7]): 31.5 ± 2.60 nmol·min/L; C-peptide Postprandial baseline (healthy men [1]; [8]): 365 ± 20.2 pmol/L; Insulin Postprandial baseline (healthy men [1]; [8]): 38.6 ± 2.09 pmol/L; mean difference in ad libitum food intake per kg body weight (placebo vs LEAP2) (healthy men [2]; 95% CI, p = 0.0029): 5.4 kJ/kg; mean difference in total ad libitum food intake (placebo vs LEAP2) (healthy men [2]; 95% CI, p = 0.0041): 432 kJ; mean difference in duration of the ad libitum meal (placebo vs LEAP2) (healthy men [2]; 95% CI, p = 0.0303): 1.5 min; reduction in energy intake during ad libitum meal compared with placebo (healthy men [2]; pasta Bolognese served 260 min after start of infusion): ~12%; cumulative food intake after dosing vs vehicle (GHSR-null mice): no effect; plasma glucose after dosing vs vehicle (GHSR-null mice): did not affect plasma glucose

Reference: PMC9043997, “LEAP2 reduces postprandial glucose excursions and ad libitum food intake in healthy men” (Cell Reports Medicine, 2022)
